Assay results taken from patent publication EP0184331A2 (priority 1984, dated 1986).
Like-named read-outs stand apart in the source and are kept apart here.

Experiments:
Graffi virus = conditions: cited from earlier work
[1] = system: leukemic cells obtained by infection of mice with Graffi's leukemia virus; conditions: cited from earlier work
[2] = system: cell-free influenza virus; conditions: 1.2 mW/cm^2, cited from earlier work
[3] = system: Intracellular influenza virus; conditions: 10 µg/ml of AMT, 1.2 mW/cm^2; cited from earlier work
[4] = system: vesicular stomatitis virus; conditions: 9 mW/cm^2 long-wave ultraviolet light; sufficient for inactivation; cited from earlier work
[5] = system: Western equine encephalitis virus (WEE, an RNA virus); conditions: cited from earlier work
[6] = system: tobacco mosaic virus (TMV); conditions: 100 mW/cm^2 long-wave ultraviolet light; AMT and HMT indistinguishable; cited from earlier work
Herpes virus = conditions: cited from earlier work; for photoinactivation: in 0.9 minutes, 10 ug/ml, 1.2 mW/cm^2 long-wave ultraviolet light
influenza virus = conditions: cited from earlier work
Moloney sarcoma virus = conditions: cited from earlier work
[7] = system: reovirus (a double-stranded RNA virus); conditions: cited from earlier work
[8] = system: Vesicular stomatitis virus (VSV); conditions: cited from earlier work; for effectiveness in photoinactivation compared with TMP: 0.7 mW/cm^2 long-wave UV light; for light dose response in the inactivation of VSV: 20-30 µg/ml
[9] = system: vesicular stomatitis virus; conditions: approximately 5 minutes irradiation at 9 mW/cm^2, 8.2 µg/ml AMT; cited from earlier work
[10] = system: herpes simplex virus (a DNA virus); conditions: cited from earlier work
Rous sarcoma virus = conditions: cited from earlier work
[11] = cited from earlier work
canine hepatitis virus = conditions: cited from earlier work
NewCastle disease virus = conditions: cited from earlier work
pseudorabies = conditions: cited from earlier work
HTLV-III = type: cell-based, Human Tumor Leukemia Virus (HTLV) III
Teschen disease virus = conditions: cited from earlier work
[12] = system: foot-and-mouth disease virus; conditions: cited from earlier work
fowl pox virus = conditions: cited from earlier work
[13] = 30 minutes at 11.5 mW/cm^2 ultraviolet light (365 mm), 10 µg/ml
[14] = 30 minutes at 11.5 mW/cm^2 ultraviolet light, 10 µg/ml
[15] = at higher psoralen derivative concentrations
[16] = on a molar basis, within TMP solubility range

SMILES: Cc1coc2c(C)c3oc(=O)cc(C)c3cc12 [4,4',8-trimethylpsoralen]
- properties of the [intracellular] Graffi virus (Graffi virus; [13]): remained unchanged
- effect on leukemic cells (ability to replicate or induce leukemia in adult mice) [1, 14]: killed the cells

SMILES: Cc1c2occc2cc2ccc(=O)oc12 [8-methyl-psoralen]
- properties of the [intracellular] Graffi virus (Graffi virus; [13]): remained unchanged
- effect on leukemic cells (ability to replicate or induce leukemia in adult mice) [1, 14]: killed the cells

SMILES: Cc1oc2c(C)c3oc(=O)cc(C)c3cc2c1CN [AMT, 4'-aminomethyl 4,5',8-trimethyl-psoralen]
- rate of inactivation compared with equivalent amounts of HMT ([2]; at all psoralen concentrations): more rapidly inactivated
- inactivation ([2]; in 1 minute, 10 µg/ml of AMT): 10 -fold
- time required for a 10^7-fold inactivation [3]: 4 minutes
- photoreaction with viral RNA [4]: photoreact only with a single base (cytosine)
- inactivation ([5]; approximately 5 minutes of irradiation at 1.9 mW/cm^2, 10 µg/ml AMT): 10^8 -fold
- inactivation rates compared with TMP [5, 15]: superior inactivation rates
- effect on translational activity compared with TMP [6]: slightly greater than the effects of TMP
- effectiveness compared with HMT (Herpes virus; at lower concentrations of the psoralen derivatives, 1.2 mW/cm^2): always more effective than an equal amount of HMT
- photoinactivation (Herpes virus): 10^4 -fold
- reduction of viral RNA polymerase activity (influenza virus; approximately 5 minutes irradiation at 9 mW/cm^2, 8.2 µg/ml AMT): 100 -fold
- inactivation (Moloney sarcoma virus): 10 -fold
- reduction of infectivity ([7]; 15 minutes irradiation at 9 mW/cm^2, AMT 2.8 x 10^-4 M = 82 ug/ml): > 10^4 -fold
- effectiveness in photoinactivation compared with TMP [8]: a thousand times more effective than TMP
- photoinactivation of VSV, comparison of derivatives ([8]; 2-3 µg/ml, 0.7 mW/cm^2): superior to HMT and MMT
- light dose response in the inactivation of VSV ([8]; 0.7 mW/cm^2): equivalent with respect to light dose response
- reduction of viral RNA polymerase activity [9]: 100 -fold
- inactivation rates compared with TMP [10, 15]: superior inactivation rates

SMILES: Cc1oc2c(C)c3oc(=O)cc(C)c3cc2c1CO [HMT, 4'-hydroxymethyl 4,5',8-trimethyl-psoralen]
- effect on translational activity compared with TMP [6]: slightly greater than the effects of TMP
- photoinactivation (Herpes virus): 10^4 -fold
- inactivation (Rous sarcoma virus): 10^4 -fold
- less effective than AMT in the photoinactivation of influenza virus (influenza virus; same conditions as AMT (9 mW/cm^2)): about 10 -fold
- reduction of infectivity ([7]; 20 minutes of irradiation at 9 mW/cm^2, HMT 2.8 x 10^-4 M = 72 µg/ml): 5 -fold
- effectiveness in photoinactivation compared with TMP [8]: a thousand times more effective than TMP
- light dose response in the inactivation of VSV ([8]; 0.7 mW/cm^2): equivalent with respect to light dose response

SMILES: COCc1c(C)oc2c(C)c3oc(=O)cc(C)c3cc12 [MMT, 4'-methoxymethyl 4,5',8-trimethyl-psoralen]
- effectiveness in photoinactivation compared with TMP [8]: a thousand times more effective than TMP
- light dose response in the inactivation of VSV ([8]; 0.7 mW/cm^2): equivalent with respect to light dose response

SMILES: Cc1cc2cc3c(C)cc(=O)oc3c(C)c2o1 [TMP, 4,5',8-tri-methylpsoralen]
- effectiveness in photoinactivation compared with AMT [5, 16]: more effective
- solubility range [11]: 0 to 1 µg/mL
- effectiveness in photoinactivation compared with AMT [10, 16]: more effective

SMILES: O=c1ccc2cc3ccoc3cc2o1 [psoralen, Psoralen]
- photoinactivation (canine hepatitis virus): photoinactivated
- irradiation resisted by the virus (NewCastle disease virus): up to 120 minutes
- properties of the [intracellular] Graffi virus (Graffi virus): remained unchanged
- photoinactivation (pseudorabies): photoinactivated
- HTLV-III titers (HTLV-III): 1 x 10^5 FFU/mL
- infectious HTLV-III recovered (HTLV-III): no infectious HTLV-III was recovered
- irradiation resisted by the virus (Teschen disease virus): up to 120 minutes
- RSV inactivated (Rous sarcoma virus): approximately 1 x 10^5 FFU/ml
- effect on leukemic cells (ability to replicate or induce leukemia in adult mice) [1]: killed the cells
- irradiation resisted by the virus [12]: up to 120 minutes
- photoinactivation (fowl pox virus): photoinactivated
